In US4241051A, “Calcitonin” (priority 1977, dated 1980):

System: bPTH-stimulated resorption
Test: Calcitonin ear drops in 45Ca-labelled guinea pigs; 45Ca release from explanted ossicles after bPTH stimulation
Type: in vivo
Settings: for antagonism by calcitonin of the bPTH-stimulated resorption (45Ca release into bathing medium): 40 hour reading
Experimental: A large dose of radio calcium (400 μCi of ^45 Ca) is administered intravenously to each of eight guinea pigs to label their skeletons. On the third, fourth and fifth days after administration of the radiocalcium each of the guinea pigs receives ear drops containing a solution of synthetic salmon calcitonin (Armour Pharmaceutical Co.) dissolved in dimethylsulphoxide (0.1 ml of solution containing 25μg of calcitonin). Four of the animals receive calcitonin to the right ear and four to the left ear, 0.1 ml of dimethylsulphoxide being given to the other ear in each case as a control.
One hour before sacrifice on the fifth day three animals from each group of four are treated intravenously with 500 MRC units of bovine parathyroid hormone (bPTH; 2000U/mg) in diluted plasma to stimulate bone resorption, the remaining animal in each group receiving diluted plasma only as a control. After sacrifice in alternation by ether anaesthesia, the ossicles of each ear of each animal are removed by the opening the temporal bone from its lower surface, remote from the external ear to which calcitonin has been applied. They are explanted onto a filter disc (Millipore HA) in a tissue culture dish containing 1 ml of the Fitton-Jackson modification of BGJ (Gibco-Biocult Ltd) with added ascorbic acid (150 μg/ml), streptomycin (5 mg/100 ml) and penicillin (5000U/100 ml), gassed with 93% air, 7% carbon dioxide. The bathing medium is withdrawn from each dish after 20, 40 and 60 hours incubation in an airtight container at 37° C. and is replaced with freshly gassed medium. After addition to 4 ml aliquots of scintillator (Packard Instagel) the samples are subjected to liquid scintillation spectrometry (Packard 2425 set to the ^14 C channel).
In a variation of the procedure described above, the calcitonin is administered in 0.1% w/v aqueous sodium dioctyl sulphosuccinate rather than in dimethyl sulphoxide in two separate experiments, the whole of the ossicles being explanted as described above in the first case and only the stapes being explanted in the second. In these two experiments some variation is made in the radiolabelling procedure, only 200 μCi of ^45 Ca being given in the first case but intraperitoneally rather than intravenously to facilitate the labelling of bone and 400 μCi of ^45 Ca being given in the second case, also intraperitoneally, but with omission of the methyl red from the BGJ culture medium as this causes considerable quenching.
A group of twenty-four guinea pigs is treated as described in Example 1 to effect labelling of their skeletons, a dose of 400 μCi of ^45 Ca being given intraperitoneally. The animals are then divided into three groups which are treated as described in Example 1 with 0.1 ml of a solution of concentration 27.8 μg/ml, 83.3 μg/ml or 250 μg/ml of synthetic salmon calcitonin in 0.1% w/v aqueous sodium dioctyl sulphosuccinate. The subsequent treatment of the animals follows that of Example 1, the methyl red being omitted from the BGJ culture medium.

Which results are given for synthetic salmon calcitonin?
level of effect on 45Ca release from explanted ossicles (Example 2, 0.1 ml ear drops of 27.8 μg/ml in 0.1% w/v aqueous sodium dioctyl sulphosuccinate): little effect; level of effect on 45Ca release from explanted ossicles (Example 2, 0.1 ml ear drops of 83.3 μg/ml in 0.1% w/v aqueous sodium dioctyl sulphosuccinate, compared with 250 μg/ml): very similar level of effect; level of effect on 45Ca release from explanted ossicles (Example 2, 0.1 ml ear drops of 250 μg/ml in 0.1% w/v aqueous sodium dioctyl sulphosuccinate, compared with 83.3 μg/ml): very similar level of effect; duration of effect after application in vivo (Example 2, bathing medium examined after 20, 40 and 60 hours of culture): effect of extended duration; antagonism by calcitonin of the bPTH-stimulated resorption (45Ca release into bathing medium) (ear drops 0.1 ml with 25 μg calcitonin in dimethylsulphoxide, days 3-5, whole of the ossicles explanted, p<0.01): highly significant; antagonism by calcitonin of the bPTH-stimulated resorption (45Ca release into bathing medium) (ear drops with calcitonin in 0.1% w/v aqueous sodium dioctyl sulphosuccinate, only the stapes explanted, p<0.005): highly significant; antagonism by calcitonin of the bPTH-stimulated resorption (45Ca release into bathing medium) (ear drops with calcitonin in 0.1% w/v aqueous sodium dioctyl sulphosuccinate, whole of the ossicles explanted, p<0.01): highly significant; concentration level generally required to achieve an adequate effect (topical composition, calcitonin with a potency of about 4500 International units per mg): greater than 25 micrograms per ml
